Experimental data as given in article PMC11557314 (Frontiers in Pharmacology, 2024).
Where no end group is shown, it is not given here.

Target: hDOPr (Homo sapiens, UniProt P41143)
Experiment: [35S]GTPγS functional assay on hDOPr-CHO cell membranes
Assay type: biochemical
Details: Table 3, mean ± SEM; for hDOPr % stim, stimulation of [35S]GTPγS binding: normalized to DynA; for EC50: read-out: hDOPr EC50, stimulation of [35S]GTPγS binding
Experimental: CHO cells stably transfected with human KOPr, MOPr, and DOPr (hKOPr-CHO, hMOPr-CHO, and hDOPr-CHO, respectively) were provided by Prof. Liu-Chen (Temple University, Philadelphia, United States). The cells were grown in Gibco™ Dulbecco’s minimal essential medium (DMEM) for hKOPr-CHO or Gibco™ DMEM/F-12 for hMOPr and hDOPr. Both media were supplemented with 10% FBS (Gibco™), GlutaMAX (100 μg/mL; Gibco™), penicillin/streptomycin (100 μg/mL; Gibco™), and geneticin (G418, 400 μg/mL; Gibco™). HEK 293 cells were grown in high-glucose DMEM supplemented with 10% FBS (Gibco™), GlutaMAX (100 μg/mL; Gibco™), and penicillin/streptomycin (100 μg/mL; Gibco™). Cell cultures were maintained in a Heracell™ 150i CO2 incubator at 37°C and 5.0% CO2.
Functional assays were conducted on hKOPr-CHO, hMOPr-CHO, and hDOPr-CHO cell membranes (see above). The membranes were prepared in a buffer containing 20 mM HEPES, 10 μM GDP, cell membrane (10–30 μg), and 0.05 nM [^35S]GTPγS. The buffer containing the cell membranes was incubated with an increasing concentration of the test peptide diluted in 1 × HEPES, pH 7.4, in a total volume of 1 mL, for 60 min at 25°C. The peptide solutions were replaced by diluents for untreated controls. Non-specific binding was determined using unlabeled 10 μM GTPγS. Samples were rapidly washed three times with Tris-HCl and filtered through glass fiber filters (GF/B Whatman). The bound radioactivity was measured by liquid scintillation (Carl Roth GmbH, Karlsruhe, Germany) counting on a Packard 1600 TR Tri-Carb Beta counter (Canberra, Belgium).

hDOPr, sequence (P41143 whole entry): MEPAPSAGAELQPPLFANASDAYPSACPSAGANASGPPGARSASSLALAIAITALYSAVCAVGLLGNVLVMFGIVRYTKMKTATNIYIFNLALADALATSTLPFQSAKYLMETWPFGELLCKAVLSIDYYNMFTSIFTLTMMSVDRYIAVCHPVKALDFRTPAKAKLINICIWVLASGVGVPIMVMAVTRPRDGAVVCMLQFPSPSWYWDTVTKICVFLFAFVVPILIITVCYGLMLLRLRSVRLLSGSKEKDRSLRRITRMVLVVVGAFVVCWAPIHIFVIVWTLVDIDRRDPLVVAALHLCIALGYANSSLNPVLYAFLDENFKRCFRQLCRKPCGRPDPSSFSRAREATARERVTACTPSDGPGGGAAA

| Sequence | hDOPr % stim, stimulation of [35S]GTPγS binding [%] | EC50 [nM] |
| --- | --- | --- |
| YGAFLRRAFKVVT [DynB_G3A/Q8A] | 86.4 ± 10.3 | 1230 |
| YGGFSRRQFKVVT [DynB_L5S] | 86.7 ± 9.2 | 310 ± 50.4 |
